Experimental data published in patent publication US8415342B2, “Besifloxacin ophthalmic composition for the treatment or control of infection” (Bausch & Lomb Incorporated, priority 2008, dated 2013).
Values after ≈ are worked out from the molar mass of the structure shown. Values joined by “and” are separate entries in the source; they are usually repeats but may differ in a detail not shown here. Identical values can stand only once.

Legend:
[1] = system: H. influenzae; test: MIC and MBC:MIC ratio, recent ocular isolates; type: cell-based; details: H. influenzae (N = 40); for MIC50 / MIC90: Haemophilus influenzae
From the text: (§1) The success of in vivo antimicrobial action depends to a large extent on the host's defense mechanisms, which ultimately sequester and kill the microorganisms that have been reduced by the bacteriostatic/bactericidal action of the antibacterial agent. Thus, it is also of interest to profile the bactericidal activity of antimicrobial agents. The assessment of in vitro bactericidal activity can be accomplished in multiple ways, for example, the time-kill method or the determination of the minimum bactericidal concentration (MBC). […] Bactericidal agents are characterized by low MBC:MIC ratios.

[2] = system: S. epidermidis; test: MIC and MBC:MIC ratio, recent ocular isolates; type: cell-based; details: S. epidermidis (N = 15); for MIC50 / MIC90: Staphylococcus epidermidis
From the text: as §1

[3] = system: S. aureus; test: MIC and MBC:MIC ratio, recent ocular isolates; type: cell-based; details: S. aureus (N = 30); for MIC50 / MIC90: Staphylococcus aureus
[4] = system: S. pneumoniae; test: MIC and MBC:MIC ratio, recent ocular isolates; type: cell-based; details: S. pneumoniae (N = 35); for MIC50 / MIC90: Streptococcus pneumoniae
[5] = target: T1, S. pneumoniae topoisomerase IV (Streptococcus pneumoniae serotype 4, UniProt P72525+Q59961); test: biochemical; type: biochemical
T1 sequence (P72525 1-823): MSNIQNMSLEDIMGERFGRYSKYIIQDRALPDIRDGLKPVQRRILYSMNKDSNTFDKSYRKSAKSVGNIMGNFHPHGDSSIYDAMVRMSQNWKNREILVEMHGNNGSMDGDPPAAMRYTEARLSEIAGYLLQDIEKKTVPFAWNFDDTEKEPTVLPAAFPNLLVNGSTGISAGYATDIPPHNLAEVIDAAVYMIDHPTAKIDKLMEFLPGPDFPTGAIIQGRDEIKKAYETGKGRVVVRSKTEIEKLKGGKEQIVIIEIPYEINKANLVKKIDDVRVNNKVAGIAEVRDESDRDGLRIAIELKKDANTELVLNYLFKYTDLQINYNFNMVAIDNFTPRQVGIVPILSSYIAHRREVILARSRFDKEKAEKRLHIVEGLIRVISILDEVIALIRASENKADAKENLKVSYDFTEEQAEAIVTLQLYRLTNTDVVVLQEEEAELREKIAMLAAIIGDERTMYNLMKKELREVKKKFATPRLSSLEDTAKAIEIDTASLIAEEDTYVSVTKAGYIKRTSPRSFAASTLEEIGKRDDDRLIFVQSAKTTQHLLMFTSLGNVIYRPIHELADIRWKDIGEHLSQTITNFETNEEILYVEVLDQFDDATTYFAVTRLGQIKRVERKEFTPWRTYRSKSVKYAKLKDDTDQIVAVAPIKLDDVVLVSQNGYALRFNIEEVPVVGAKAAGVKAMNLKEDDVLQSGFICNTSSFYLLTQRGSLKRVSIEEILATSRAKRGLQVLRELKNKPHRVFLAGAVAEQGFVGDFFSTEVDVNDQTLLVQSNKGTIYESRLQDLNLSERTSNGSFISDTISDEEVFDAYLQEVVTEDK
T1 sequence (Q59961 1-647): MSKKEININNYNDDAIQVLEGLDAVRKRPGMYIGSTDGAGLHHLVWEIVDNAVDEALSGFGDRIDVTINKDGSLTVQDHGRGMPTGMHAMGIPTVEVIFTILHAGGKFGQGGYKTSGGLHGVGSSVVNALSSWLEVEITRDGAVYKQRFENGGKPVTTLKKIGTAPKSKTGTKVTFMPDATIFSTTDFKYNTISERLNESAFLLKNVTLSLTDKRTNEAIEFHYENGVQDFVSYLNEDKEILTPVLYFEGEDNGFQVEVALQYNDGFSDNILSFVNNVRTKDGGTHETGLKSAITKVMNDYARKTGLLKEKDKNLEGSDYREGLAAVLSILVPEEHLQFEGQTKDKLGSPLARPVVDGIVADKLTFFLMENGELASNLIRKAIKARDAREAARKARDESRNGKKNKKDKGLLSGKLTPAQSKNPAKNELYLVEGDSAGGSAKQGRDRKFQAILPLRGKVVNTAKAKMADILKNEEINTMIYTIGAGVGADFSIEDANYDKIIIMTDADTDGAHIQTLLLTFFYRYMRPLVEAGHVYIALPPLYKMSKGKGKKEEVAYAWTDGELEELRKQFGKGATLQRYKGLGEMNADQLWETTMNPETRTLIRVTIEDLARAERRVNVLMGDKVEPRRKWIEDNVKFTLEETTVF

[6] = target: T1, S. pneumoniae topoisomerase IV; type: biochemical; details: S. pneumoniae enzymes; concentration that produces 25% linearization of the DNA
[7] = target: E. coli DNA gyrase (Escherichia coli, UniProt P0AES4+P0AES6); test: Catalytic inhibition of purified DNA gyrase; type: biochemical
Chain of E. coli DNA gyrase (P0AES4 whole entry, one chain of several): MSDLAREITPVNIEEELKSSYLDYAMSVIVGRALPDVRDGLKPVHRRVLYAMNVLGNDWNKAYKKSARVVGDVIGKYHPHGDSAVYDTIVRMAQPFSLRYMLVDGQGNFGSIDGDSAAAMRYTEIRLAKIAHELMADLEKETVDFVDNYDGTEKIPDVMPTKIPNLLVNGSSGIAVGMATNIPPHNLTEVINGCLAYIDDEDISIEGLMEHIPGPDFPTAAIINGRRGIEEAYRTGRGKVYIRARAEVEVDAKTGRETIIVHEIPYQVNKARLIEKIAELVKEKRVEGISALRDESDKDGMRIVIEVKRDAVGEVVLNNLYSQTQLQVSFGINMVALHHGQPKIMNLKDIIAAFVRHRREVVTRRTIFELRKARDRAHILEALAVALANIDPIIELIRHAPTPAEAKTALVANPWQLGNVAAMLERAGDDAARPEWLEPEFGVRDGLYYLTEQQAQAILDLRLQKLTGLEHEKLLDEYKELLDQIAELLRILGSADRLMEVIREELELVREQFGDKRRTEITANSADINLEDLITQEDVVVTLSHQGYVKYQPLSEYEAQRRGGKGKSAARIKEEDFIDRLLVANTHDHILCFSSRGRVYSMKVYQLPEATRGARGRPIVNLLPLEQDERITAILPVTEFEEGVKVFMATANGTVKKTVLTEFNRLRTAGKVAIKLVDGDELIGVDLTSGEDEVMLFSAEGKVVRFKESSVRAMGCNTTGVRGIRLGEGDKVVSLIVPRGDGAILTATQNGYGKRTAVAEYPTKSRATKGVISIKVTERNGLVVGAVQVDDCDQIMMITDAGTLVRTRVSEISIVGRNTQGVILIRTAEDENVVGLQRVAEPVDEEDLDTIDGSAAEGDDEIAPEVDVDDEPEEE

[8] = system: S. pneumoniae topoisomerase mutants; test: MIC against defined topoisomerase mutants; type: cell-based; details: Streptococcus pneumoniae
[9] = system: S. aureus topoisomerase mutants; test: MIC against defined topoisomerase mutants; type: cell-based; details: Staphylococcus aureus

CC[C@H]1OC(=O)[C@H](C)[C@@H](O[C@H]2C[C@@](C)(OC)[C@@H](O)[C@H](C)O2)[C@H](C)[C@@H](O[C@@H]2O[C@H](C)C[C@H](N(C)C)[C@H]2O)[C@](C)(O)C[C@@H](C)CN(C)[C@H](C)[C@@H](O)[C@]1(C)O [Azithromycin] was tested, and the “% S (susceptible isolates, CLSI)” value ([1]; recent ocular isolates) was 100.0%, the “MIC Range” value ([1]; recent ocular isolates) was “≦0.004-2 μg/mL” and the MIC50 ([1]; recent ocular isolates) was 0.5 µg/mL. For the same molecule, the MIC90 ([1]; recent ocular isolates) was 1 µg/mL, the “% S (susceptible isolates, CLSI)” value ([2]; recent ocular isolates) was 26.7% and the MIC50 ([2]; recent ocular isolates) was greater than 8 µg/mL. The MIC90 ([2]; recent ocular isolates) was greater than 8 µg/mL, the “% S (susceptible isolates, CLSI)” value ([3]; recent ocular isolates) was 53.3% and the MIC50 ([3]; recent ocular isolates) was 1 µg/mL. For the same molecule, the MIC90 ([3]; recent ocular isolates) was greater than 8 µg/mL, the “% S (susceptible isolates, CLSI)” value ([4]; recent ocular isolates) was 62.9% and the MIC50 ([4]; recent ocular isolates) was 0.06 µg/mL. For the same molecule, the MIC90 ([4]; recent ocular isolates) was greater than 8 µg/mL.
With N[C@@H]1CCCCN(c2c(F)cc3c(=O)c(C(=O)O)cn(C4CC4)c3c2Cl)C1 [Besifloxacin, (R)-(+)-(3-amino-2,3,4,5,6,7-hexahydro-1H-azepin-1-yl)-8-chloro-1-cyclopropyl-6-fluoro-1,4,-dihydro-4-oxo-3-quinolinecarboxylic acid] the IC50 ([5]; IC50 Topo IV, S. pneumoniae enzymes) was 1000 nM and 1020 nM, the “potency relative to ciprofloxacin and moxifloxacin (catalytic inhibition and cleavable complex stimulation)” value ([5]; S. pneumoniae topoisomerase IV) was 2.5- to 5.0 fold and the “CC25 Topo IV” value [6] was 1 μM and 0.4 μg/mL. For the same molecule, the IC50 ([7]; E. coli enzymes) was 2300 nM and 2540 nM, the “inhibitory concentration for gyrase lower than for topoisomerase IV” value ([7]; E. coli enzymes) was 10 fold and the “catalytic inhibition and cleavable complex stimulation relative to comparators” value ([7]; purified E. coli DNA gyrase and topoisomerase IV) was “equivalent to that of the ciprofloxacin and moxifloxacin comparators”. It also gave an MIC ([8]; S. pneumoniae Wild type) of 0.12 µg/mL (≈ 0.305 µM), an MIC ([8]; S. pneumoniae gyrA S81F) of 0.5 µg/mL (≈ 1.27 µM) and an MIC ([8]; S. pneumoniae parC S79Y) of 0.25 µg/mL (≈ 0.635 µM). For the same molecule, the MIC ([8]; S. pneumoniae parC S79Y + gyrA S81F) was 1 µg/mL, the MIC ([9]; S. aureus Wild type) was 0.03 µg/mL (≈ 0.0762 µM) and the MIC ([9]; S. aureus parC S80F (or E84K)) was 0.06 µg/mL (≈ 0.152 µM). The MIC ([9]; S. aureus parC S80F + gyrA S84L) was 0.5 µg/mL, the “% of isolates with MBC:MIC ratio 1” value [1] was 42.5% and the “% of isolates with MBC:MIC ratio 2” value [1] was 50.0%. For the same molecule, the “% of isolates with MBC:MIC ratio 4” value [1] was 7.5%, the “% of isolates with MBC:MIC ratio 8” value [1] was 0.0% and the “% of isolates with MBC:MIC ratio ≧16” value [1] was 0.0%. The “MIC Range” value ([1]; recent ocular isolates) was “≦0.004-0.03 μg/mL”, the MIC50 ([1]; recent ocular isolates) was 0.015 µg/mL and the MIC90 ([1]; recent ocular isolates) was 0.015 µg/mL. The “% of isolates with MBC:MIC ratio 1” value [2] was 73.3%, the “% of isolates with MBC:MIC ratio 2” value [2] was 20.0% and the “% of isolates with MBC:MIC ratio 4” value [2] was 6.7%. For the same molecule, the “% of isolates with MBC:MIC ratio 8” value [2] was 0.0%, the “% of isolates with MBC:MIC ratio ≧16” value [2] was 0.0% and the “MIC Range” value ([2]; recent ocular isolates) was 0.015 to 4 µg/mL. The MIC50 ([2]; recent ocular isolates) was 0.03 µg/mL, the MIC90 ([2]; recent ocular isolates) was 4 µg/mL and the “% of isolates with MBC:MIC ratio 1” value [3] was 56.7%. The “% of isolates with MBC:MIC ratio 2” value [3] was 23.3%, the “% of isolates with MBC:MIC ratio 4” value [3] was 6.7% and the “% of isolates with MBC:MIC ratio 8” value [3] was 13.3%. For the same molecule, the “% of isolates with MBC:MIC ratio ≧16” value [3] was 0.0%, the “MIC Range” value ([3]; recent ocular isolates) was 0.015 to 4 µg/mL and the MIC50 ([3]; recent ocular isolates) was 0.12 µg/mL. The MIC90 ([3]; recent ocular isolates) was 4 µg/mL, the “% of isolates with MBC:MIC ratio 1” value [4] was 60.0% and the “% of isolates with MBC:MIC ratio 2” value [4] was 37.1%. The “% of isolates with MBC:MIC ratio 4” value [4] was 2.9%, the “% of isolates with MBC:MIC ratio 8” value [4] was 0.0% and the “% of isolates with MBC:MIC ratio ≧16” value [4] was 0.0%. For the same molecule, the “MIC Range” value ([4]; recent ocular isolates) was 0.015 to 0.5 µg/mL, the MIC50 ([4]; recent ocular isolates) was 0.06 µg/mL and the MIC90 ([4]; recent ocular isolates) was 0.06 µg/mL.
